Measured values taken from patent publication US20130273519A1, “COMPOSITION FOR TREATING BLOOD AND SET OF DIAGNOSTIC KIT COMPRISING THE SAME TO DETECT AUTOIMMUNE DISEASE” (priority 2012, published 2013).

System: level of expression of MMP-3 in blood
Assay: Level of expression of MMP-3 in blood stimulated with PMA, measured using flow cytometer (FACS)
Format: cell-based, human
Parameters: unit not given here
Details: for level of expression of MMP-3, After: 500 ul whole blood, 90 ng PMA, 3 h + 6 h Brefeldin A; for level of expression of MMP-3, Total (After minus Before): PMA stimulation
Method: In order to implement the method of stimulating blood and to check the clinical value of the kit of the present invention, the level of expression of MMP-3 was checked using a flow cytometer. 3 ml of blood was collected to sodium citrate tube (BD vacutainer), and CBC (complete blood count) was measured immediately upon pumping-up the blood. Then, the blood was stimulated with the chemical substance of the present invention. 500 ul of whole blood was put into the 24 wells plate for cell culture, and 90 ng of PMA was added into the plate. Then, the cell culture plate was put into a 5% CO2 incubator, and was kept at 37 for 3 hours. After 3 hours, 200 ug/ml of Brefeldin A(SIGMA) was added into the plate, and placed at 37 for 6 hours.
After lapse of the total 9 hours, 50 ul of blood was extracted, and put into 2 tubes respectively. Then, 10 ul of CD45-PC5 10 and 10 ul of CD14-FITC were respectively added to the 2 tubes, mixed with each other, and placed in a darkroom at room temperature for 15 min. Then, 100 ul of RBC lysis buffer (Bechman coulter) was added to the 2 tubes respectively, and mixed with each other using a vortex. The mixtures were placed in a darkroom at room temperature for 15 min. Then, 4 ml of PBS was added to the 2 tubes respectively, and centrifuged to remove the supernatant. Here, the supernatant was not removed using pipette, but poured out to minimize the loss of cells. 100 ul of 0.1% saponin was added to the remaining cells, and stirred smoothly using pipette. Then, the mixture was placed in a darkroom at room temperature for 5min. Then, 10 ul of IgG1-PE was added to the control group and 10 ul of MMP-3-PE was added to the comparative group, and then the both groups were placed in a darkroom for 15 min. After 15 min, 4 ml of PBS was added to the each group, and centrifuged under the condition of 2000 g, 5 min and 4 to remove the supernatant. Then, 500 ul of fresh PBS was added to the each group, and fluorescence-activated cell sorting (FACS) was performed.

[1] = RA (R), patient with reduced activity after being treated with drugs
[2] = RA (S), patient with severe rheumatoid arthritis
[3] = RA (mi), patient with mild rheumatoid arthritis

CCCCCCCCCCCCCC(=O)O[C@@H]1[C@@H](C)[C@@]2(O)[C@@H](C=C(CO)C[C@]3(O)C(=O)C(C)=C[C@@H]23)[C@@H]2C(C)(C)[C@]12OC(C)=O [PMA, Phorbol 12-myristate 13-acetate]
level of expression of MMP-3, After (Normal1 (normal person)): 39.23
level of expression of MMP-3, Total (After minus Before) (Normal1 (normal person)): 12.56
level of expression of MMP-3, After (Normal2 (normal person)): 53.05
level of expression of MMP-3, Total (After minus Before) (Normal2 (normal person)): 11.49
level of expression of MMP-3, After [1]: 48.35
level of expression of MMP-3, Total (After minus Before) [1]: 14.86
level of expression of MMP-3, After [2]: 68.97
level of expression of MMP-3, Total (After minus Before) [2]: 43.64
level of expression of MMP-3, After [3]: 63.65
level of expression of MMP-3, Total (After minus Before) [3]: 27.52
level of expression of MMP-3, After (RA (s)): 64.53
level of expression of MMP-3, Total (After minus Before) (RA (s)): 26.12
